Patent US8759333B2, “Di-azetidinyl diamide as monoacylglycerol lipase inhibitors” (Janssen Pharmaceutica, NV, priority 2010, dated 2014)

Key:
[1] = biological target: T1, mutant MGL (mut-MGLL 11-313 L179S L186S) (Homo sapiens, UniProt Q99685, L169S/L176S); test: MGL Enzyme Activity Assay, purified mutant MGL, 4MU-B substrate; format: biochemical; conditions: mutant MGL 5 nM, 4MU-B 10 μM, 37° C.; read-out: MGL mutant inh IC50
T1 construct: purified mutant MGL (mut-MGLL 11-313 L179S L186S)
T1 sequence (Q99685 1-303 L169S/L176S): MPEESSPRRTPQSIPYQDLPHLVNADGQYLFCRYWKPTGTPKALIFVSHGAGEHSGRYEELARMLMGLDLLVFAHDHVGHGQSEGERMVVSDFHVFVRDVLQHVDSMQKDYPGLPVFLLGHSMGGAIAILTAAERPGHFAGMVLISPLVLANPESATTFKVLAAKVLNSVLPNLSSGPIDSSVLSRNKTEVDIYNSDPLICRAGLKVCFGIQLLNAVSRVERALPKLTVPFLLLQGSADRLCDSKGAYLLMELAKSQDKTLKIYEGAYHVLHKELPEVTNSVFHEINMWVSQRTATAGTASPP
Method: All rate-based assays were performed in black 384-well polypropylene PCR microplates (Abgene) in a total volume of 30 μL. Substrate 4-methylumbelliferyl butyrate (4MU-B; Sigma) and either purified mutant MGL (mut-MGLL 11-313 L179S L186S) or purified wild type MGL (wt-MGLL 6H-11-313) were diluted separately into 20 mM PIPES buffer (pH=7.0), containing 150 mM NaCl and 0.001% Tween 20. Compounds of Formula (I), including Formulas I(a), I(b), and I(c), were pre-dispensed (50 nL) into the assay plate using a Cartesian Hummingbird prior to adding 4MU-B (25 μL of 1.2× solution to a final concentration of 10 μM) followed by enzyme (5 μL of a 6× solution to a final concentration of 5 nM) to initiate the reaction. Final compound concentrations ranged from 17 to 0.0003 μM. The fluorescence change due to 4MU-B cleavage was monitored with excitation and emission wavelengths of 335 and 440 nm, respectively, and a bandwidth of 10 nm (Safire^2, Tecan) at 37° C. for 5 min.
The IC50 values for the following compounds were determined using Microsoft Office Excel from a fit of the equation to the concentration-response plot of the fractional activity as a function of inhibitor concentration.

[2] = biological target: T2, MGL (Rattus norvegicus, UniProt Q8R431); test: 2-AG Accumulation Assay in rat brain homogenate; format: biochemical; conditions: compound @10 µM, percent of vehicle, read-out: Rat Brain 2AG % VehCntrl (%) @10 µM
T2 construct: one g rat brain was homogenized using a Polytron homogenizer; from tissue; host or cells: rat brain homogenate
T2 sequence (Q8R431 1-303): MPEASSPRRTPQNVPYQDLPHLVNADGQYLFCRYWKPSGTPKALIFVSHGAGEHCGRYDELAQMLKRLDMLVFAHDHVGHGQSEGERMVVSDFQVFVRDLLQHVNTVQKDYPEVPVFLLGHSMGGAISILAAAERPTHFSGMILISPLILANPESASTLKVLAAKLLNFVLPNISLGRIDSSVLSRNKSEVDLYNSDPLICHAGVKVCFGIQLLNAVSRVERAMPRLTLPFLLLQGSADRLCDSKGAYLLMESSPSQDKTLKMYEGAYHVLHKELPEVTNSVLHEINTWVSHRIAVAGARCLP

Compound	IC50 [1] [nM]	activity at 10 µM [2] [%]
O=C(NC1CN(C2CN(C(=O)c3cc4ccc(-c5ccccc5)cc4s3)C2)C1)c1nccs1 [Cpd 6, N-{1′-[(6-Phenyl-1-benzothiophen-2-yl)carbonyl]-1,3′-biazetidin-3-yl}-1,3-thiazole-2-carboxamide]	8	–
Cc1c(C(=O)N2CC(N3CC(NC(=O)c4nccs4)C3)C2)sc2ccc(Cl)cc12 [Cpd 15, N-{1′-[(5-Chloro-3-methyl-1-benzothiophen-2-yl)carbonyl]-1,3′-biazetidin-3-yl}-1,3-thiazole-2-carboxamide]	28	611
O=C(NC1CN(C2CN(C(=O)c3ccc4c(Br)cccc4c3)C2)C1)c1nccs1 [Cpd 19, N-{1′-[(5-Bromonaphthalen-2-yl)carbonyl]-1,3′-biazetidin-3-yl}-1,3-thiazole-2-carboxamide]	63	418
O=C(NC1CN(C2CN(C(=O)c3ccc(Cc4cccc(C(F)(F)F)c4)cc3)C2)C1)c1nccs1 [Cpd 20, N-[1′-({4-[3-(Trifluoromethyl)benzyl]phenyl}carbonyl)-1,3′-biazetidin-3-yl]-1,3-thiazole-2-carboxamide]	65	977
O=C(NC1CN(C2CN(C(=O)c3ccc4cc(-c5ccccc5)ccc4c3)C2)C1)c1nccs1 [Cpd 21, N-{1′-[(6-Phenylnaphthalen-2-yl)carbonyl]-1,3′-biazetidin-3-yl}-1,3-thiazole-2-carboxamide]	69	581
O=C(NC1CN(C2CN(C(=O)c3ccc4nc(-c5ccccc5)sc4c3)C2)C1)c1cscn1 [Cpd 22, N-{1′-[(2-Phenyl-1,3-benzothiazol-6-yl)carbonyl]-1,3′-biazetidin-3-yl}-1,3-thiazole-4-carboxamide]	86	–
O=C(NC1CN(C2CN(C(=O)c3cc4ccc(Br)cc4s3)C2)C1)c1nccs1 [Cpd 23, N-{1′-[(6-Bromo-1-benzothiophen-2-yl)carbonyl]-1,3′-biazetidin-3-yl}-1,3-thiazole-2-carboxamide]	93	343
O=C(NC1CN(C2CN(C(=O)c3ccc4c(Br)cccc4c3)C2)C1)c1ccccc1 [Cpd 24, N-{1′-[(5-Bromonaphthalen-2-yl)carbonyl]-1,3′-biazetidin-3-yl}benzamide]	99	73
O=C(NC1CN(C2CN(C(=O)c3ccc4c(-c5ccccc5)cccc4c3)C2)C1)c1ccccc1 [Cpd 25, N-{1′-[(5-Phenylnaphthalen-2-yl)carbonyl]-1,3′-biazetidin-3-yl}benzamide]	154	–
O=C(NC1CN(C2CN(C(=O)c3ccc(Cc4ccc(C(F)(F)F)cc4)cc3)C2)C1)c1ccccc1 [Cpd 26, N-[1′-({4-[4-(Trifluoromethyl)benzyl]phenyl}carbonyl)-1,3′-biazetidin-3-yl]benzamide]	157	–
O=C(NC1CN(C2CN(C(=O)c3ccc4nc(-c5cccc(C(F)(F)F)c5)oc4c3)C2)C1)c1nccs1 [Cpd 28, N-[1′-({2-[3-(Trifluoromethyl)phenyl]-1,3-benzoxazol-6-yl}carbonyl)-1,3′-biazetidin-3-yl]-1,3-thiazole-2-carboxamide]	180	–
O=C(NC1CN(C2CN(C(=O)c3ccc(-c4ccccc4)cc3)C2)C1)c1nccs1 [Cpd 29, N-[1′-(Biphenyl-4-ylcarbonyl)-1,3′-biazetidin-3-yl]-1,3-thiazole-2-carboxamide]	184	–
O=C(NC1CN(C2CN(C(=O)c3ccc4nc(-c5ccc(C(F)(F)F)cc5)oc4c3)C2)C1)c1nccs1 [Cpd 30, N-[1′-({2-[4-(Trifluoromethyl)phenyl]-1,3-benzoxazol-6-yl}carbonyl)-1,3′-biazetidin-3-yl]-1,3-thiazole-2-carboxamide]	264	–
O=C(NC1CN(C2CN(C(=O)c3ccc(Oc4ccccc4)cc3)C2)C1)c1nccs1 [Cpd 32, N-{1′-[(4-Phenoxyphenyl)carbonyl]-1,3′-biazetidin-3-yl}-1,3-thiazole-2-carboxamide]	287	–
O=C(NC1CN(C2CN(C(=O)c3ccc4nc(-c5ccc(Cl)cc5)oc4c3)C2)C1)c1nccs1 [Cpd 33, N-(1′-{[2-(4-Chlorophenyl)-1,3-benzoxazol-6-yl]carbonyl}-1,3′-biazetidin-3-yl)-1,3-thiazole-2-carboxamide]	303	–
O=C(NC1CN(C2CN(C(=O)c3ccc4cc(-c5ccccc5)ccc4c3)C2)C1)c1ccccc1 [Cpd 34, N-{1′-[(6-Phenylnaphthalen-2-yl)carbonyl]-1,3′-biazetidin-3-yl}benzamide]	332	–
O=C(NC1CN(C2CN(C(=O)c3ccc4oc(-c5ccccc5)nc4c3)C2)C1)c1nccs1 [Cpd 35, N-{1′-[(2-Phenyl-1,3-benzoxazol-5-yl)carbonyl]-1,3′-biazetidin-3-yl}-1,3-thiazole-2-carboxamide]	341	–
Cc1c(C(=O)N2CC(N3CC(NC(=O)c4ccccc4)C3)C2)sc2ccc(Cl)cc12 [Cpd 36, N-{1′-[(5-Chloro-3-methyl-1-benzothiophen-2-yl)carbonyl]-1,3′-biazetidin-3-yl}benzamide]	458	–
CN(C(=O)c1nccs1)C1CN(C2CN(C(=O)c3cc4ccc(C(F)(F)F)cc4s3)C2)C1 [Cpd 37, N-Methyl-N-(1′-{[6-(trifluoromethyl)-1-benzothiophen-2-yl]carbonyl}-1,3′-biazetidin-3-yl)-1,3-thiazole-2-carboxamide]	476	–
O=C(c1ccccc1)c1ccc(C(=O)N2CC(N3CC(NC(=O)c4nccs4)C3)C2)cc1 [Cpd 38, N-(1′-{[4-(Phenylcarbonyl)phenyl]carbonyl}-1,3′-biazetidin-3-yl)-1,3-thiazole-2-carboxamide]	588	–
O=C(NC1CN(C2CN(C(=O)c3ccc4cc(Br)ccc4c3)C2)C1)c1nccs1 [Cpd 40, N-{1′-[(6-Bromonaphthalen-2-yl)carbonyl]-1,3′-biazetidin-3-yl}-1,3-thiazole-2-carboxamide]	882	–
O=C(NC1CN(C2CN(C(=O)c3ccc4nc(-c5ccccc5)oc4c3)C2)C1)c1ccccc1 [Cpd 41, N-{1′-[(2-Phenyl-1,3-benzoxazol-6-yl)carbonyl]-1,3′-biazetidin-3-yl}benzamide]	939	–
O=C(NC1CN(C2CN(C(=O)c3ccc4cc(Br)ccc4c3)C2)C1)c1ccccc1 [Cpd 42, N-{1′-[(6-Bromonaphthalen-2-yl)carbonyl]-1,3′-biazetidin-3-yl}benzamide]	997	–
O=C(NC1CN(C2CN(C(=O)c3cc4cc(C(F)(F)F)ccc4s3)C2)C1)c1ccccc1 [Cpd 44, N-(1′-{[5-(Trifluoromethyl)-1-benzothiophen-2-yl]carbonyl}-1,3′-biazetidin-3-yl)benzamide]	1830	–
O=C(NC1CN(C2CN(C(=O)c3ccc4c(-c5ccccc5)cccc4c3)C2)C1)c1nccs1 [Cpd 53, N-{1′-[(5-Phenylnaphthalen-2-yl)carbonyl]-1,3′-biazetidin-3-yl}-1,3-thiazole-2-carboxamide]	< 5	722
O=C(c1ccc2cc(Br)ccc2c1)N1CC(N2CC(N3Cc4ccccc4C3=O)C2)C1 [Cpd 90, 2-{1′-[(6-Bromonaphthalen-2-yl)carbonyl]-1,3′-biazetidin-3-yl}-2,3-dihydro-1H-isoindol-1-one]	154	–
O=C(c1ccc(N2CCCCC2)cc1)N1CC(N2CC(N3Cc4ccccc4C3=O)C2)C1 [Cpd 91, 2-{1′-[(4-Piperidin-1-ylphenyl)carbonyl]-1,3′-biazetidin-3-yl}-2,3-dihydro-1H-isoindol-1-one]	236	–
O=C(c1ccc(-c2cc3ccccc3s2)cc1)N1CC(N2CC(N3Cc4ccccc4C3=O)C2)C1 [Cpd 95, 2-(1′-{[4-(1-Benzothiophen-2-yl)phenyl]carbonyl}-1,3′-biazetidin-3-yl)-2,3-dihydro-1H-isoindol-1-one]	750	–
O=C(c1ccc(Br)cc1)N1CC(N2CC(N3Cc4ccccc4C3=O)C2)C1 [Cpd 96, 2-{1′-[(4-Bromophenyl)carbonyl]-1,3′-biazetidin-3-yl}-2,3-dihydro-1H-isoindol-1-one]	4670	–
